Laboratory results published in article PMC10327353 (Breast Cancer Research : BCR, 2023).
Where “and” joins values, the source holds several entries; their conditions need not be identical. Equal entries are not always repeated.

Experiment: Phase 1 study: safety and tolerability
Assay type: in vivo
Protocol: The maximum tolerated dose (MTD) of DZD1516 was defined based on safety data and the Bayesian optimal interval (BOIN) design (Additional file 1). The definition of DLT is provided in Additional file 1.
The AE grading was assessed according to the NCI-Common Terminology Criteria for Adverse Events (CTCAE) (version 5.0) and was monitored until 28 days after the last dose.
Eligible patients received single oral dosing of DZD1516 on Cycle 0 Day 1 (C0D1), followed by a 7-day washout. Twice daily oral dosing (bid) of DZD1516 was commenced from C1D1 in a continuous 21-day cycle until disease progression, unacceptable toxicity, or withdrawal of consent. All doses were taken under fed conditions (within 30 minutes after a meal).
Planned dosing consisted of 25, 50, 100, 200, 300, and 400 mg. Each dose escalation cohort will comprise a minimum of three and a maximum of six evaluable patients (except only one patient in the starting dose cohort). The maximum tolerated dose of DZD1516 was defined according to safety data and the Bayesian optimal interval (BOIN) design. Dose escalation/de-escalation rule with target toxicity rate for the MTD is 0.30 with interval of (0.20, 0.33).
DLTs were any adverse event (AE) not clearly attributable to the patient’s disease, including ≥ grade 4 hematological toxicities present for ≥ 4 days, grade 3 thrombocytopenia with bleeding, or grade 4 thrombocytopenia lasting for > 5 days, ≥ grade 3 non-hematological toxicities that is dose-limiting in the judgment of the investigators. Any other toxicity that is greater than that at baseline, is clinically significant or unacceptable, and is judged to be a DLT by the SRC. Exceptions included alopecia of any grade and isolated grade 3 laboratory change without clinical sequelae or clinical significance.
Safety evaluations were conducted at screening, on Day 1, 8, and 15 of Cycle 1, on Day 1 of each subsequent treatment cycle, at the end-of-treatment visit, and clinically indicated. Safety assessments included clinical laboratory measurements (hematology, chemistry, coagulation, and urinalysis), electrocardiogram (ECG), Echocardiogram/MUGA scan, ECOG performance status, vital signs, and physical examinations.

COc1cc(O[C@H]2CCN(C)CC2(F)F)c2c(Nc3ccc(Oc4ccn5ncnc5c4)c(C)c3)ncnc2c1 [DZD1516]
Decreased appetite, ≥ Grade 3 (300 mg (N = 4)): 0 (0.0) n (%) | Dizziness, Any Grade (300 mg (N = 4)): 1 (25.0) n (%) | Dizziness, ≥ Grade 3 (300 mg (N = 4)): 1 (25.0) n (%) | Drug-related TEAE: Grade 3 (300 mg (N = 4)): 2 (50.0) n (%) | Drug-related TEAE: Leading to death (300 mg (N = 4)): 0 (0.0) n (%) | Drug-related TEAE: Leading to dose reduction (300 mg (N = 4)): 3 (75.0) n (%) | Drug-related TEAE: Leading to treatment discontinuation (300 mg (N = 4)): 0 (0.0) n (%) | Drug-related TEAE: Leading to treatment interruption (300 mg (N = 4)): 2 (50.0) n (%) | Drug-related TEAE: SAE (300 mg (N = 4)): 0 (0.0) n (%) | Fatigue, Any Grade (300 mg (N = 4)): 1 (25.0) n (%) | Fatigue, ≥ Grade 3 (300 mg (N = 4)): 1 (25.0) n (%) | Gastrointestinal disorders, Any Grade (300 mg (N = 4)): 4 (100.0) n (%) | Gastrointestinal disorders, ≥ Grade 3 (300 mg (N = 4)): 1 (25.0) n (%) | General disorders and administration site conditions, Any Grade (300 mg (N = 4)): 3 (75.0) n (%) | General disorders and administration site conditions, ≥ Grade 3 (300 mg (N = 4)): 2 (50.0) n (%) | Headache, Any Grade (300 mg (N = 4)): 4 (100.0) n (%) | Headache, ≥ Grade 3 (300 mg (N = 4)): 0 (0.0) n (%) | Hemoglobin decreased, Any Grade (300 mg (N = 4)): 0 (0.0) n (%) | Hemoglobin decreased, ≥ Grade 3 (300 mg (N = 4)): 0 (0.0) n (%) | Investigations, Any Grade (300 mg (N = 4)): 1 (25.0) n (%) | Investigations, ≥ Grade 3 (300 mg (N = 4)): 0 (0.0) n (%) | Lipase increased, Any Grade (300 mg (N = 4)): 0 (0.0) n (%) | Lipase increased, ≥ Grade 3 (300 mg (N = 4)): 0 (0.0) n (%) | Malaise, Any Grade (300 mg (N = 4)): 1 (25.0) n (%) | Malaise, ≥ Grade 3 (300 mg (N = 4)): 1 (25.0) n (%) | Metabolism and nutrition disorders, Any Grade (300 mg (N = 4)): 3 (75.0) n (%) | Metabolism and nutrition disorders, ≥ Grade 3 (300 mg (N = 4)): 0 (0.0) n (%) | Musculoskeletal and connective tissue disorders, Any Grade (300 mg (N = 4)): 3 (75.0) n (%) | Musculoskeletal and connective tissue disorders, ≥ Grade 3 (300 mg (N = 4)): 1 (25.0) n (%) | Nausea, Any Grade (300 mg (N = 4)): 4 (100.0) n (%) | Nausea, ≥ Grade 3 (300 mg (N = 4)): 1 (25.0) n (%) | Nervous system disorders, Any Grade (300 mg (N = 4)): 4 (100.0) n (%) | Nervous system disorders, ≥ Grade 3 (300 mg (N = 4)): 2 (50.0) n (%) | Participants with any TEAE, Any Grade (300 mg (N = 4)): 4 (100.0) n (%) | Participants with any TEAE, ≥ Grade 3 (300 mg (N = 4)): 3 (75.0) n (%) | Platelet count decreased, Any Grade (300 mg (N = 4)): 0 (0.0) n (%) | Platelet count decreased, ≥ Grade 3 (300 mg (N = 4)): 0 (0.0) n (%) | Proteinuria, Any Grade (300 mg (N = 4)): 1 (25.0) n (%) | Proteinuria, ≥ Grade 3 (300 mg (N = 4)): 0 (0.0) n (%) | Renal and urinary disorders, Any Grade (300 mg (N = 4)): 1 (25.0) n (%) | Renal and urinary disorders, ≥ Grade 3 (300 mg (N = 4)): 0 (0.0) n (%) | Subjects with any TEAE (300 mg (N = 4)): 4 (100.0) n (%) | Subjects with any drug-related TEAE (300 mg (N = 4)): 4 (100.0) n (%) | Vomiting, Any Grade (300 mg (N = 4)): 3 (75.0) n (%) | Vomiting, ≥ Grade 3 (300 mg (N = 4)): 1 (25.0) n (%) | White blood cell count decreased, Any Grade (300 mg (N = 4)): 0 (0.0) n (%) | White blood cell count decreased, ≥ Grade 3 (300 mg (N = 4)): 0 (0.0) n (%) | diarrhea (300 mg cohort): A single case of grade 2 diarrhea | dose-limiting toxicities (DLTs) (300 mg cohort): two out of four patients experienced DLTs | dose-limiting toxicity (DLT) (25–200 mg cohorts): no dose-limiting toxicity (DLT) observed | diarrhea or skin rash (MTD (250 mg) or lower doses): No diarrhea or skin rash of any grade was observed | Alanine aminotransferase increased, Any Grade (Total (N = 23)): 3 (13.0) n (%) | Alanine aminotransferase increased, ≥ Grade 3 (Total (N = 23)): 0 (0.0) n (%) | Anemia, Any Grade (Total (N = 23)): 3 (13.0) n (%) | Anemia, ≥ Grade 3 (Total (N = 23)): 0 (0.0) n (%) | Any TEAE: Grade 3 (Total (N = 23)): 6 n (%) and 6 (26.1) n (%) | Any TEAE: Leading to death (Total (N = 23)): 0 (0.0) n (%) | Any TEAE: Leading to dose reduction (Total (N = 23)): 3 n (%) and 3 (13.0) n (%) | Any TEAE: Leading to treatment discontinuation (Total (N = 23)): 1 (4.3) n (%) | Any TEAE: Leading to treatment interruption (Total (N = 23)): 5 n (%) and 5 (21.7) n (%) | Any TEAE: SAE (Total (N = 23)): 2 (8.7) n (%) | Aspartate aminotransferase increased, Any Grade (Total (N = 23)): 5 (21.7) n (%) | Aspartate aminotransferase increased, ≥ Grade 3 (Total (N = 23)): 0 (0.0) n (%) | Blood and lymphatic system disorders, Any Grade (Total (N = 23)): 3 (13.0) n (%) | Blood and lymphatic system disorders, ≥ Grade 3 (Total (N = 23)): 0 (0.0) n (%) | Blood bilirubin increased, Any Grade (Total (N = 23)): 4 (17.4) n (%) | Blood bilirubin increased, ≥ Grade 3 (Total (N = 23)): 0 (0.0) n (%) | Cardiac disorders, Any Grade (Total (N = 23)): 3 (13.0) n (%) | Cardiac disorders, ≥ Grade 3 (Total (N = 23)): 0 (0.0) n (%) | Constipation, Any Grade (Total (N = 23)): 3 (13.0) n (%) | Constipation, ≥ Grade 3 (Total (N = 23)): 0 (0.0) n (%) | Decreased appetite, Any Grade (Total (N = 23)): 4 (17.4) n (%) | Decreased appetite, ≥ Grade 3 (Total (N = 23)): 0 (0.0) n (%) | Dizziness, Any Grade (Total (N = 23)): 3 (13.0) n (%) | Dizziness, ≥ Grade 3 (Total (N = 23)): 1 (4.3) n (%) | Drug-related TEAE: Grade 3 (Total (N = 23)): 4 n (%) and 4 (17.4) n (%) | Drug-related TEAE: Leading to death (Total (N = 23)): 0 (0.0) n (%) | Drug-related TEAE: Leading to dose reduction (Total (N = 23)): 3 (13.0) n (%) | Drug-related TEAE: Leading to treatment discontinuation (Total (N = 23)): 0 (0.0) n (%) | Drug-related TEAE: Leading to treatment interruption (Total (N = 23)): 3 (13.0) n (%) | Drug-related TEAE: SAE (Total (N = 23)): 1 (4.3) n (%) | Fatigue, Any Grade (Total (N = 23)): 4 (17.4) n (%) | Fatigue, ≥ Grade 3 (Total (N = 23)): 1 (4.3) n (%) | Gastrointestinal disorders, Any Grade (Total (N = 23)): 10 (43.5) n (%) | Gastrointestinal disorders, ≥ Grade 3 (Total (N = 23)): 3 (13.0) n (%) | General disorders and administration site conditions, Any Grade (Total (N = 23)): 8 (34.8) n (%) | General disorders and administration site conditions, ≥ Grade 3 (Total (N = 23)): 2 (8.7) n (%) | Headache, Any Grade (Total (N = 23)): 10 (43.5) n (%) | Headache, ≥ Grade 3 (Total (N = 23)): 0 (0.0) n (%) | Hemoglobin decreased, Any Grade (Total (N = 23)): 7 (30.4) n (%) | Hemoglobin decreased, ≥ Grade 3 (Total (N = 23)): 0 (0.0) n (%) | Investigations, Any Grade (Total (N = 23)): 14 (60.9) n (%) | Investigations, ≥ Grade 3 (Total (N = 23)): 2 (8.7) n (%) | Lipase increased, Any Grade (Total (N = 23)): 3 (13.0) n (%) | Lipase increased, ≥ Grade 3 (Total (N = 23)): 0 (0.0) n (%) | Malaise, Any Grade (Total (N = 23)): 3 (13.0) n (%) | Malaise, ≥ Grade 3 (Total (N = 23)): 1 (4.3) n (%) | Metabolism and nutrition disorders, Any Grade (Total (N = 23)): 11 (47.8) n (%) | Metabolism and nutrition disorders, ≥ Grade 3 (Total (N = 23)): 0 (0.0) n (%) | Musculoskeletal and connective tissue disorders, Any Grade (Total (N = 23)): 7 (30.4) n (%) | Musculoskeletal and connective tissue disorders, ≥ Grade 3 (Total (N = 23)): 2 (8.7) n (%) | Nausea, Any Grade (Total (N = 23)): 6 (26.1) n (%) | Nausea, ≥ Grade 3 (Total (N = 23)): 1 (4.3) n (%) | Nervous system disorders, Any Grade (Total (N = 23)): 14 (60.9) n (%) | Nervous system disorders, ≥ Grade 3 (Total (N = 23)): 2 (8.7) n (%) | Participants with any TEAE, Any Grade (Total (N = 23)): 22 (95.7) n (%) | Participants with any TEAE, ≥ Grade 3 (Total (N = 23)): 6 (26.1) n (%) | Platelet count decreased, Any Grade (Total (N = 23)): 3 (13.0) n (%) | Platelet count decreased, ≥ Grade 3 (Total (N = 23)): 0 (0.0) n (%) | Proteinuria, Any Grade (Total (N = 23)): 4 (17.4) n (%) | Proteinuria, ≥ Grade 3 (Total (N = 23)): 0 (0.0) n (%) | Renal and urinary disorders, Any Grade (Total (N = 23)): 5 (21.7) n (%) | Renal and urinary disorders, ≥ Grade 3 (Total (N = 23)): 0 (0.0) n (%) | Subjects with any TEAE (Total (N = 23)): 22 (95.7) n (%) | Subjects with any drug-related TEAE (Total (N = 23)): 21 (91.3) n (%) | Vomiting, Any Grade (Total (N = 23)): 8 (34.8) n (%) | Vomiting, ≥ Grade 3 (Total (N = 23)): 2 (8.7) n (%) | White blood cell count decreased, Any Grade (Total (N = 23)): 3 (13.0) n (%) | White blood cell count decreased, ≥ Grade 3 (Total (N = 23)): 0 (0.0) n (%) | grade 4 or 5 AEs (all dose levels): No grade 4 or 5 AEs were reported | maximum tolerated dose (MTD) (patients, BID): 250 mg
